Laboratory results from patent US20240327412A1, “FACTOR XIIA INHIBITORS” (KALVISTA PHARMACEUTICALS LIMITED, priority 2021, published 2024).

Assays:
Format in all cases: biochemical
[1] = biological target: T1, Human Factor XIIa (Homo sapiens, UniProt P00748); assay: Determination of FXIIa inhibition (fluorogenic substrate H-DPro-Phe-Arg-AFC, IC50 assay); settings: substrate at Km concentration, 25° C.; category scale; read-out: Human FXII IC50 (nm)
T1 construct: Proteolytic cleavage of FXII to heavy and light chains of FXIIa dramatically increases catalytic activity; purchased Enzyme Research Laboratories
T1 sequence (P00748 373-615 limits assumed): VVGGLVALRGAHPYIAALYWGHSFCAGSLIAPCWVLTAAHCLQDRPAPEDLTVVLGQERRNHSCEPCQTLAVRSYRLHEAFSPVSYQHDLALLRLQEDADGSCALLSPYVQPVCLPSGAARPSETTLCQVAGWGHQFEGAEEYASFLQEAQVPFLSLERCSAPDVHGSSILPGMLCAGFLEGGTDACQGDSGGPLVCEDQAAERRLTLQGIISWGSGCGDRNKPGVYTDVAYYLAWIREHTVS
T1 sequence (P00748 20-372 partner limits assumed): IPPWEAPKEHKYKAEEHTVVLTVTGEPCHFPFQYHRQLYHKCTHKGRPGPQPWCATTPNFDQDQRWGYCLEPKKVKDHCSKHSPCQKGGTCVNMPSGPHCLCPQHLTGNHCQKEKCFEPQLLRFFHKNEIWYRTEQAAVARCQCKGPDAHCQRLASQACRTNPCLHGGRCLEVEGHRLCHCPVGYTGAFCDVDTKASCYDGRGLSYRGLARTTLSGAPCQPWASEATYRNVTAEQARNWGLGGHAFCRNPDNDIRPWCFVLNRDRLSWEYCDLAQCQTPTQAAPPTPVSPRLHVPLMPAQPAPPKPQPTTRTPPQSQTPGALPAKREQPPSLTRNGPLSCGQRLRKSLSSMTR
How it was run: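 Human FXIIa incubated at 25° C. with fluorogenic H-DPro-Phe-Arg-AFC at its Km concentration plus varying compound levels. Linear fluorescence increase over 5 min taken as % activity; IC50 is concentration halving uninhibited activity.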

[2] = biological target: T2, Plasma Kallikrein (Homo sapiens, UniProt P03952); assay: Related protease inhibition: Plasma Kallikrein (fluorogenic substrate at Km); settings: class symbols per Table 18, read-out: IC50 (human PKal)
T2 construct: FXIIa converts plasma prekallikrein (PK) to plasma kallikrein (PKa)
Protocol: (§1) In vitro inhibition of related proteases was determined using an IC50 assay based on standard literature methods (see e.g. Shori et al., Biochem. Pharmacol., 1992, 43, 1209; Bouckaert et al., European Journal of Medicinal Chemistry 110 (2016) 181). Human serine protease enzyme Plasma Kallikrein, KLK1, FXa, Plasmin, Thrombin and Trypsin were assayed for enzymatic activity using an appropriate fluorogenic substrate at Km concentration, FXIa at fixed substrate concentration of 100 μM and various concentrations of the test compound. Protease activity was measured by monitoring the accumulation of liberated fluorescence from the substrate over 5 min at 25° C. The linear rate of fluorescence increase per minute was expressed as percentage (%) activity. IC50 values were calculated as the concentration of inhibitor giving 50% inhibition of the uninhibited enzyme activity (100%).

[3] = biological target: KLK1 (Homo sapiens, UniProt P06870); assay: Related protease inhibition: KLK1 (fluorogenic substrate at Km); settings: class symbols per Table 18
Protocol: as §1

T2 sequence (P03952 391-638 limits assumed): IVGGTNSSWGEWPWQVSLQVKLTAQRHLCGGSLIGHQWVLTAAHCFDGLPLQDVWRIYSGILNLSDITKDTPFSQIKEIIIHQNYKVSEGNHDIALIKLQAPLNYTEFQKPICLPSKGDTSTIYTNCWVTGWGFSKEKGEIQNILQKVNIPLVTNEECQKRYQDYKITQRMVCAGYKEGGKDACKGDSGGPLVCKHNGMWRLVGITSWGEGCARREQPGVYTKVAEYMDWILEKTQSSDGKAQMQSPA
T2 sequence (P03952 20-390 partner limits assumed): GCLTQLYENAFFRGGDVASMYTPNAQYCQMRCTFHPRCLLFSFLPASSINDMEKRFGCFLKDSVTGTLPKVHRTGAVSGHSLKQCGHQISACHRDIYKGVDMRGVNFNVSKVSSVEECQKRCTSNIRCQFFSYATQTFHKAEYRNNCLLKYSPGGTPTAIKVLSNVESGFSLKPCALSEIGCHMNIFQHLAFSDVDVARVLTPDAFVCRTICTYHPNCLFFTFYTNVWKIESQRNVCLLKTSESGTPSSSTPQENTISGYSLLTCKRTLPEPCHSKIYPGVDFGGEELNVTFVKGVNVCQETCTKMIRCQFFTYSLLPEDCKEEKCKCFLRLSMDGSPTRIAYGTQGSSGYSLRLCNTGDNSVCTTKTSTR
Sequence of KLK1 (P06870 25-262): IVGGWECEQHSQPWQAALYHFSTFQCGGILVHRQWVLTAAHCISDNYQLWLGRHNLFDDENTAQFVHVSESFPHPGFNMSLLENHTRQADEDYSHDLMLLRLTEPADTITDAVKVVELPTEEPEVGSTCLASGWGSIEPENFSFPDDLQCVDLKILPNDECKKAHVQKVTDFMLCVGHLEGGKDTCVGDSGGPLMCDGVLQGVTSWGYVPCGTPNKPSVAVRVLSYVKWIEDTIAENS

Row | IC50 [1] [µM] | IC50 [2] [µM] | IC50 [3] [µM] | SMILES
1 | 1 to 3 | > 40 |  | Nc1nccc2c(NCC34COC(COc5ccc6ncnn6c5)(C3)C4)cccc12 [Example 2210, N5-((1-(([1,2,4]triazolo[1,5-a]pyridin-6-yloxy)methyl)-2-oxabicyclo[2.1.1]hexan-4-yl)methyl)isoquinoline-1,5-diamine]
2 | 1 to 3 | > 40 |  | Clc1cc2c(NCC34CC(COc5ccn6ccnc6c5)(CO3)C4)ccnc2[nH]1 [Example 6606, 2-chloro-N-((4-((imidazo[1,2-a]pyridin-7-yloxy)methyl)-2-oxabicyclo[2.1.1]hexan-1-yl)methyl)-1H-pyrrolo[2,3-b]pyridin-4-amine]
3 | 0.3 to 1 | > 40 |  | Nc1nccc2c(NCC34CC(COC5CCc6nccn6C5)(CO3)C4)cccc12 (centres unmarked) [Example 6610, N5-((4-(((5,6,7,8-tetrahydroimidazo[1,2-a]pyridin-6-yl)oxy)methyl)-2-oxabicyclo[2.1.1]hexan-1-yl)methyl)isoquinoline-1,5-diamine]
4 | 1 to 3 | > 40 |  | Clc1cc2c(NCC34CC(COc5ccc6nccn6c5)(CO3)C4)ccnc2[nH]1 [Example 6611, 2-chloro-N-((4-((imidazo[1,2-a]pyridin-6-yloxy)methyl)-2-oxabicyclo[2.1.1]hexan-1-yl)methyl)-1H-pyrrolo[2,3-b]pyridin-4-amine]
5 | 1 to 3 | > 40 |  | Nc1nccc2c(NCC34CC(COc5ccc6nccn6n5)(CO3)C4)cccc12 [Example 6612, N5-((4-((imidazo[1,2-b]pyridazin-6-yloxy)methyl)-2-oxabicyclo[2.1.1]hexan-1-yl)methyl)isoquinoline-1,5-diamine]
6 | 0.3 to 1 |  | 10 to 40 | Nc1nccc2c(OCC34CC(CNc5ccc6nccn6c5)(CO3)C4)cccc12 [Example 6619, 5-((4-((imidazo[1,2-a]pyridin-6-ylamino)methyl)-2-oxabicyclo[2.1.1]hexan-1-yl)methoxy)isoquinolin-1-amine]
7 | 0.01 to 0.1 |  | 1 to 3 | Cc1cc2nccn2cc1OCC12COC(CNc3cccc4c(N)nccc34)(C1)C2 [Example 6622, N5-((4-(((7-methylimidazo[1,2-a]pyridin-6-yl)oxy)methyl)-2-oxabicyclo[2.1.1]hexan-1-yl)methyl)isoquinoline-1,5-diamine]
8 | 0.01 to 0.1 |  | 1 to 3 | Cc1c(OCC23COC(CNc4cccc5c(N)nccc45)(C2)C3)ccc2nccn12 [Example 6626, N5-((4-(((5-methylimidazo[1,2-a]pyridin-6-yl)oxy)methyl)-2-oxabicyclo[2.1.1]hexan-1-yl)methyl)isoquinoline-1,5-diamine]
9 | 0.1 to 0.3 | > 40 |  | CC1(C)OC2(CNc3cccc4c(N)nccc34)CC1(COc1ccc3nccn3c1)C2 [Example 7703, N5-((4-((imidazo[1,2-a]pyridin-6-yloxy)methyl)-3,3-dimethyl-2-oxabicyclo[2.1.1]hexan-1-yl)methyl)isoquinoline-1,5-diamine]
10 | 0.3 to 1 | > 40 |  | CC1(C)OC2(COc3cccc4c(N)nccc34)CC1(COc1ccc3nccn3c1)C2 [Example 7704, 5-((4-((imidazo[1,2-a]pyridin-6-yloxy)methyl)-3,3-dimethyl-2-oxabicyclo[2.1.1]hexan-1-yl)methoxy)isoquinolin-1-amine]
11 | 10 to 40 | > 40 |  | Nc1nccc2c(N3CC4(CC(OCc5ccn6ccnc6c5)C4)C3)cccc12 [Example 8801, 5-(6-(imidazo[1,2-a]pyridin-7-ylmethoxy)-2-azaspiro[3.3]heptan-2-yl)isoquinolin-1-amine]
12 | 1 to 3 | > 40 |  | Nc1nccc2c(N3CCC4(CC(OCc5ccn6ccnc6c5)C4)C3)cccc12 (centres unmarked) [Example 8803, 5-(2-(imidazo[1,2-a]pyridin-7-ylmethoxy)-6-azaspiro[3.4]octan-6-yl)isoquinolin-1-amine]
13 | 1 to 3 | > 40 |  | Nc1nccc2c(N3CCC4(CC(OCc5ccn6ccnc6c5)C4)C3)cccc12 (stereo not drawn) [Example 8804, 5-(cis*-2-(imidazo[1,2-a]pyridin-7-ylmethoxy)-6-azaspiro[3.4]octan-6-yl)isoquinolin-1-amine]
14 | 1 to 3 | > 40 |  | Nc1nccc2c(N3CCC4(CC(OCc5ccn6ccnc6c5)C4)C3)cccc12 (stereo not drawn) [Example 8805, 5-(trans*-2-(imidazo[1,2-a]pyridin-7-ylmethoxy)-6-azaspiro[3.4]octan-6-yl)isoquinolin-1-amine]
15 | 10 to 40 | > 40 |  | Nc1nccc2c(N3CC4(CC(COc5ccc6nccn6c5)C4)C3)cccc12 [Example 8808, 5-(6-((imidazo[1,2-a]pyridin-6-yloxy)methyl)-2-azaspiro[3.3]heptan-2-yl)isoquinolin-1-amine]
16 | 10 to 40 | > 40 |  | Nc1nccc2c(N3CC4(CCC4OCc4ccn5ccnc5c4)C3)cccc12 (centres unmarked) [Example 9001, 5-(5-(imidazo[1,2-a]pyridin-7-ylmethoxy)-2-azaspiro[3.3]heptan-2-yl)isoquinolin-1-amine]
17 | 0.3 to 1 | > 4 |  | Nc1nccc2c(NCC34CC(COC5CCn6ccnc6C5)(CCO3)C4)cccc12 (centres unmarked) [Example 10903, N5-((5-(((5,6,7,8-tetrahydroimidazo[1,2-a]pyridin-7-yl)oxy)methyl)-2-oxabicyclo[3.1.1]heptan-1-yl)methyl)isoquinoline-1,5-diamine]
18 | 0.3 to 1 | > 40 |  | Nc1nccc2c(NCC34CC(COC5CCc6nccn6C5)(CCO3)C4)cccc12 (centres unmarked) [Example 10908, N5-((5-(((5,6,7,8-tetrahydroimidazo[1,2-a]pyridin-6-yl)oxy)methyl)-2-oxabicyclo[3.1.1]heptan-1-yl)methyl)isoquinoline-1,5-diamine]
19 | 1 to 3 | > 40 |  | Clc1cc2c(NCC34CC(COc5ccc6nccn6c5)(CCO3)C4)ccnc2[nH]1 [Example 10909, 2-Chloro-N-[[5-(imidazo[1,2-a]pyridin-6-yloxymethyl)-2-oxabicyclo[3.1.1]heptan-1-yl]methyl]-1H-pyrrolo[2,3-b]pyridin-4-amine]
20 | 0.1 to 0.3 | > 40 |  | Nc1nccc2c(NCC34CC(COc5ccc6nnc(C(F)F)n6n5)(CCO3)C4)cccc12 [Example 10910, N5-((5-(((3-(difluoromethyl)-[1,2,4]triazolo[4,3-b]pyridazin-6-yl)oxy)methyl)-2-oxabicyclo[3.1.1]heptan-1-yl)methyl)isoquinoline-1,5-diamine]
21 | 3 to 10 | > 40 |  | Cn1cccc(OCC23CCOC(CNc4cccc5c(N)nccc45)(C2)C3)c1=O [Example 10911, 3-((1-(((1-aminoisoquinolin-5-yl)amino)methyl)-2-oxabicyclo[3.1.1]heptan-5-yl)methoxy)-1-methylpyridin-2(1H)-one]
22 | 10 to 40 | > 40 |  | Nc1nccc2c(NCC34CC(COc5ncccn5)(CCO3)C4)cccc12 [Example 10912, N5-((5-((pyrimidin-2-yloxy)methyl)-2-oxabicyclo[3.1.1]heptan-1-yl)methyl)isoquinoline-1,5-diamine]
23 | 3 to 10 | > 40 |  | Nc1nccc2c(NCC34CC(COc5ccccn5)(CCO3)C4)cccc12 [Example 10914, N5-((5-((pyridin-2-yloxy)methyl)-2-oxabicyclo[3.1.1]heptan-1-yl)methyl)isoquinoline-1,5-diamine]
24 | 10 to 40 | > 40 |  | Nc1nccc2c(NCC34CC(Cn5ccccc5=O)(CCO3)C4)cccc12 [Example 10915, 1-((1-(((1-aminoisoquinolin-5-yl)amino)methyl)-2-oxabicyclo[3.1.1]heptan-5-yl)methyl)pyridin-2(1H)-one]
25 | 10 to 40 | > 40 |  | Nc1nccc2c(NCC34CN(C(=O)OCc5ccccc5)C(C(=O)N5CCn6c(nnc6C(F)(F)F)C5)(C3)C4)cccc12 [Example 13002, benzyl 4-(((1-aminoisoquinolin-5-yl)amino)methyl)-1-(3-(trifluoromethyl)-5,6,7,8-tetrahydro-[1,2,4]triazolo[4,3-a]pyrazine-7-carbonyl)-2-azabicyclo[2.1.1]hexane-2-carboxylate]
